Test results from patent US7521569B2, “Process to obtain dibenzylbutyrolactonic lignans, process to obtain synthetic derivatives from lignans bearing anti-Chagas chemoprophylactic and therapeutical activities” (Fundação De Amparo À Pesquisa Do Estado de São Paulo, priority 2002, dated 2009).
Converted amounts (≈) assume the structure as drawn. Like-named read-outs stand apart in the source and are kept apart here.

System: blood tripomastigote forms of different lines of Trypanosoma cruzi
Assay: Tripanocidal activity: percentual of lysis of blood tripomastigote forms in infected mouse blood
Format: cell-based
Details: for killing at 25 µg/mL / killing at 50 µg/mL / IC50: Trypanosoma cruzi; for killing at 25 µg/mL: read-out: % lysis; for anti-Chagas activity: statement in words
Method: Evaluation of the tripanocidal activity was made by checking percentual of lysis from blood tripomastigote forms of different lines of Trypanosoma cruzi, isolated from […] of mice on the parasitemic peak. Biological essays have been made on 200 μl titration microplaques containing about […] forms of the parasite in each milliliter of used blood. Substance concentrations as used for evaluation were of 10, 25 and 50 μg/ml, which were solubilized under PBS buffer containing 5% dimethyl sulfoxide. After adding substances, infected blood has been incubated at 4° C. under constant shaking for a 24-hour period. After that period, the quantity of parasites surviving to the action of substances was counted in an optical microscope and in comparison to the negative control group (infected blood, adding the solution used to solubilized substances), calculations concerning the determination of lysis percentual have been made. As a positive control, gentian violet has been used under concentration of 250 μg/ml, as indicated for chemoprophylaxis. All essays have been made in triplicate.
The biological activity protocol as described above is already fully published and used in the scientific field, being therefore standardized regarding tripanocidal activity (chemoprophylaxis and susceptibility evaluation for the parasite).
Various scientific works using this method, which is even presented in the original evaluation work for the biological activity of cubebin, as published by Bastos and contributors in 1999.

[1] = 50 μg/ml, infected blood, 4° C., 24 h
[2] = lysis of blood tripomastigotes, 24 h at 4° C., read-out: IC50
[3] = 25 μg/ml, infected blood, 4° C., 24 h

SMILES	killing at 25 µg/mL (24 h)	killing at 50 µg/mL [1]	IC50 [2]	anti-Chagas activity	killing at 25 µg/mL [3]	% lysis [1]	IC50 (24 h)	% lysis (250 μg/ml (positive control), infected blood, 4° C., 24 h)
O=C1OC[C@H](Cc2cc3c(cc2[N+](=O)[O-])OCO3)[C@H]1Cc1cc2c(cc1[N+](=O)[O-])OCO2 [6,6′-Dinitrohinokinin, 6, 6′-Dinitrohinokinin]	57.6%	82.8%	37.1 µg/mL (≈ 83.5 µM)	bear anti-Chagas activity	–	–	–	–
OC1OC[C@H](Cc2ccc3c(c2)OCO3)[C@H]1Cc1ccc2c(c1)OCO2 (stereo partly drawn) [Cubebin, cubebin]	–	52.3%	97.6 µg/mL (≈ 274 µM)	bear anti-Chagas activity	7.3%	–	–	–
COc1ccc(C[C@H]2C(=O)OC[C@@H]2Cc2ccc3c(c2)OCO3)cc1OC [Metilpluviatolide, methylpluviatolide]	99%	–	–	bear anti-Chagas activity	–	50/100%	1.3 µg/mL (≈ 3.51 µM)	–
O=C1OC[C@H](Cc2ccc3c(c2)OCO3)[C@H]1Cc1ccc2c(c1)OCO2 [Hinokinin]	–	95.4%	0.9 µg/mL (≈ 2.54 µM)	bear anti-Chagas activity	80.1%	–	–	–
COC1OC[C@H](Cc2ccc3c(c2)OCO3)[C@H]1Cc1ccc2c(c1)OCO2 (stereo partly drawn) [O-methyl cubebin, O-methyl Cubebin]	–	62%	86.3 µg/mL (≈ 233 µM)	bear anti-Chagas activity	13.9%	–	–	–
CN(C)CCOC1OC[C@H](Cc2ccc3c(c2)OCO3)[C@H]1Cc1ccc2c(c1)OCO2 (single isomer, unassigned; (-)) [O-dimethylethylamine cubebin, (−)-O-dimethylethylamine-cubebin]	–	–	3 µg/mL (≈ 7.02 µM)	bear anti-Chagas activity	90.1%	50/100%	–	–
CN(C)c1ccc(C(=C2C=CC(=[N+](C)C)C=C2)c2ccc(N(C)C)cc2)cc1 [Gentian violet, gentian violet, reference compound]	–	–	76 µg/mL	–	–	–	–	250/100%
CC(=O)OC1OC[C@H](Cc2ccc3c(c2)OCO3)[C@H]1Cc1ccc2c(c1)OCO2 (stereo partly drawn) [O-acetyl cubebin, O-acetyl Cubebin]	–	–	16.9 µg/mL (≈ 42.4 µM)	bear anti-Chagas activity	76.2%	50/100%	–	–
